According to ChEMBL document CHEMBL5212743, “Selectivity Literature for EUbOPEN Chemogenomics Library wave 3” (2023):

Experiments:
[1] = molecular target: Tyrosine-protein kinase ABL1 (Homo sapiens, UniProt P00519, T315I); test: Selectivity interaction (KinomeScan (DiscoverX, competition-binding assay)) EUB0000178b ABL1
[2] = molecular target: Serine/threonine-protein kinase 10 (Homo sapiens) (UniProt O94804); test: Selectivity interaction (KinomeScan (DiscoverX)) EUB0000698a STK10; settings: at 10 µM
[3] = molecular target: Aurora kinase A (Homo sapiens, UniProt O14965)
Chain of Aurora kinase A (O14965 whole entry): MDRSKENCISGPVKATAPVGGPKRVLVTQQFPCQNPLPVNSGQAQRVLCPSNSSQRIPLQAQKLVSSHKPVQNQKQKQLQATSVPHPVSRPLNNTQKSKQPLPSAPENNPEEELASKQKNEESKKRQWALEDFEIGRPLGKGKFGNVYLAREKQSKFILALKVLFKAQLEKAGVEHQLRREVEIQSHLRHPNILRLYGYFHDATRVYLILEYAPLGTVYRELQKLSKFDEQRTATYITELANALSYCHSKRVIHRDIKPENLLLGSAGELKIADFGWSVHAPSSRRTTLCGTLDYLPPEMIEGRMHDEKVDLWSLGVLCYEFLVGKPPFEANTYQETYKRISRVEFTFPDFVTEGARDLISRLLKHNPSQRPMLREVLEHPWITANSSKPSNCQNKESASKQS

[4] = molecular target: Serine/threonine-protein kinase Chk2 (Homo sapiens, UniProt O96017); settings: at 1 µM
Chain of Serine/threonine-protein kinase Chk2 (O96017 whole entry): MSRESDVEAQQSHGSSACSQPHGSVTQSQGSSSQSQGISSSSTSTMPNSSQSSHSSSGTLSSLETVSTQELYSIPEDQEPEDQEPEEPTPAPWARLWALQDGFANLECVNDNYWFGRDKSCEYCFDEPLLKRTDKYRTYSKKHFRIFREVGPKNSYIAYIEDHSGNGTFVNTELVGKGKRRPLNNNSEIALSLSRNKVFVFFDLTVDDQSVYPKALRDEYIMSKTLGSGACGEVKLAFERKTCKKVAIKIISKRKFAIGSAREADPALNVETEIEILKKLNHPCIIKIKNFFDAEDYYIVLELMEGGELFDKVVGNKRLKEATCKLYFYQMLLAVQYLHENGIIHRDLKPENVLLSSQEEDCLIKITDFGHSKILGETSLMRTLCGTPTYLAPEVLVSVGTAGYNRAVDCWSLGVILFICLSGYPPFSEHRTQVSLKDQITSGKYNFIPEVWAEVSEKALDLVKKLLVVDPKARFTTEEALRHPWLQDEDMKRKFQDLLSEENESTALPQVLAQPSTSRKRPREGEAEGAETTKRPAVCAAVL

[5] = molecular target: T1, Aurora kinase C (Homo sapiens) (UniProt Q9UQB9); settings: at 1 µM
T1 sequence (whole entry): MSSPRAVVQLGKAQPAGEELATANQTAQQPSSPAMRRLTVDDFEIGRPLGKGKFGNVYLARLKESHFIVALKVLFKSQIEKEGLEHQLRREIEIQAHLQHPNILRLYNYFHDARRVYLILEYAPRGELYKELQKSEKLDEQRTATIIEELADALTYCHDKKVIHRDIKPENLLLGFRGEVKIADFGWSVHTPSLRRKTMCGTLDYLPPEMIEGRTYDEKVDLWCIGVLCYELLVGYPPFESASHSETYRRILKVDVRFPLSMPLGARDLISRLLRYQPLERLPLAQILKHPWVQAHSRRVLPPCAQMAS

[6] = molecular target: Aurora kinase B (Homo sapiens, UniProt Q96GD4); settings: at 1 µM
Chain of Aurora kinase B (Q96GD4 whole entry): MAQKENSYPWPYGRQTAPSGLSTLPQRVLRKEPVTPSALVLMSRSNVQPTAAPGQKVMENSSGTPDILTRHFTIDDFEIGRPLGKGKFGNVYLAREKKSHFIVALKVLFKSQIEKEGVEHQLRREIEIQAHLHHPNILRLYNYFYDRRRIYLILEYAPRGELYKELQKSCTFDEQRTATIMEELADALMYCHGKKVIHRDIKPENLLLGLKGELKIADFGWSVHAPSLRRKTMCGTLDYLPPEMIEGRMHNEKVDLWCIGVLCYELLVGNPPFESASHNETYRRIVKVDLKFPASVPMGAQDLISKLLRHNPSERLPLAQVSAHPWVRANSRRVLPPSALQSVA

[7] = molecular target: Hepatocyte growth factor receptor (Homo sapiens) (UniProt P08581); settings: at 1 µM
Chain of Hepatocyte growth factor receptor (Homo sapiens) (P08581 whole entry): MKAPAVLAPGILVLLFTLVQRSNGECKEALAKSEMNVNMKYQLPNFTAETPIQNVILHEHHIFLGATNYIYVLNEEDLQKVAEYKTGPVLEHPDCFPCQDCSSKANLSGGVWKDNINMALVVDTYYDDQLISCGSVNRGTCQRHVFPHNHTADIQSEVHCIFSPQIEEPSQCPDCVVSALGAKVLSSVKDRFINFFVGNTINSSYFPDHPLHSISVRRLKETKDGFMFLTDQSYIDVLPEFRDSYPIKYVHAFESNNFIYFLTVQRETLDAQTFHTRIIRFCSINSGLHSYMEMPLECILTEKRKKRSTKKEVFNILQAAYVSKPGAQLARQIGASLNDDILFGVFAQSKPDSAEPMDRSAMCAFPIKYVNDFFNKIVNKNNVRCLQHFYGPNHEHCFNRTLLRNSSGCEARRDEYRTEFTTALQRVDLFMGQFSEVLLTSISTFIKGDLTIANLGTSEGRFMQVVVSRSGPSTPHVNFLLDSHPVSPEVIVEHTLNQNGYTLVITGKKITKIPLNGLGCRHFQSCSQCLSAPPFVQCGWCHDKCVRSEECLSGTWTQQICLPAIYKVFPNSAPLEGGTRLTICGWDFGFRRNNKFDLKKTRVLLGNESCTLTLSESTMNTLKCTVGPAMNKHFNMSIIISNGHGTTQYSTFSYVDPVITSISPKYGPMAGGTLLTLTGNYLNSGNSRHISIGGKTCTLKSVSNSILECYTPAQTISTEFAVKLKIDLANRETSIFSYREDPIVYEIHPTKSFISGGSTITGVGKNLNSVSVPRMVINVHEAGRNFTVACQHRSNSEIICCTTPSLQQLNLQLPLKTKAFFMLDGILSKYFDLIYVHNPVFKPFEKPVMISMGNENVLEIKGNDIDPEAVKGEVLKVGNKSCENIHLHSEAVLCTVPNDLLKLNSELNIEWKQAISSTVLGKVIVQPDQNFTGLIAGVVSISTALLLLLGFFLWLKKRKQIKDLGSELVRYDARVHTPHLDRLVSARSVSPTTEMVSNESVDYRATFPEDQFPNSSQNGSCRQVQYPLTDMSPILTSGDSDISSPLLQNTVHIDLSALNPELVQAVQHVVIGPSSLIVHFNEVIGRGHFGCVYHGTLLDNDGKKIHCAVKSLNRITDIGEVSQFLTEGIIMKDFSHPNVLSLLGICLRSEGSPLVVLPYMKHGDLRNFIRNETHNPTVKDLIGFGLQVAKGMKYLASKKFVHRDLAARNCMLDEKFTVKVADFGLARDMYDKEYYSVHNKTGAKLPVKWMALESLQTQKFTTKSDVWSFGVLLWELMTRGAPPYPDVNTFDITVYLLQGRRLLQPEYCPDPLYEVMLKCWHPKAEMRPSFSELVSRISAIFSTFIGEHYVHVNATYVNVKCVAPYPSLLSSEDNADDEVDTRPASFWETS

[8] = molecular target: High affinity nerve growth factor receptor (Homo sapiens, UniProt P04629); settings: at 1 µM
Chain of High affinity nerve growth factor receptor (P04629 whole entry, looked up): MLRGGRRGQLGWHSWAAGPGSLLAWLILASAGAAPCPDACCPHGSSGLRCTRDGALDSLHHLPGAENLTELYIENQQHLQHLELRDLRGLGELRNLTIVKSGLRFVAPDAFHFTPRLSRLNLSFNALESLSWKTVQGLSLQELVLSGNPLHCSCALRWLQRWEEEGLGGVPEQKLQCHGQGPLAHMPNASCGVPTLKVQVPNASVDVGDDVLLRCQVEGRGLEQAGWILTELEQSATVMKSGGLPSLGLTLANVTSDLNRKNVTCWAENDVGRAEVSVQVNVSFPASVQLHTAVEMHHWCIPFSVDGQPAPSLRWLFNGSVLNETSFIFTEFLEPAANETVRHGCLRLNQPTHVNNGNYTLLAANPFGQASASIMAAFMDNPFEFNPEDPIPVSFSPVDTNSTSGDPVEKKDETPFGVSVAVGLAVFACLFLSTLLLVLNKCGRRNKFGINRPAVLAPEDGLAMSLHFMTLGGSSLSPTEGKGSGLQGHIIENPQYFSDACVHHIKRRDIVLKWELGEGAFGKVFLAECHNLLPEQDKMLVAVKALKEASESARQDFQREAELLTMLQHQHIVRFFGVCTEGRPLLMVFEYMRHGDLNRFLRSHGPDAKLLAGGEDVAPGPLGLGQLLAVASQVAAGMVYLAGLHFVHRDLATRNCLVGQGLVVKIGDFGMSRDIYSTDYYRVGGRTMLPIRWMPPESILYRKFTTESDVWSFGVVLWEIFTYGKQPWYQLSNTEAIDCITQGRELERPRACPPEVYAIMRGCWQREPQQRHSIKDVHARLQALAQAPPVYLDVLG

[9] = molecular target: T2, Mitogen-activated protein kinase kinase kinase 19 (Homo sapiens) (UniProt Q56UN5); test: Selectivity interaction (KinomeScan (DiscoverX)) EUB0000305b MAP3K19; settings: CellTiter-Glo assay (Promega, proliferation in ACHN cells): IC50 = […] nM, https://www.sgc-ffm.uni-frankfurt.de/#!specificprobeove, at 100 nM
T2 sequence (whole entry): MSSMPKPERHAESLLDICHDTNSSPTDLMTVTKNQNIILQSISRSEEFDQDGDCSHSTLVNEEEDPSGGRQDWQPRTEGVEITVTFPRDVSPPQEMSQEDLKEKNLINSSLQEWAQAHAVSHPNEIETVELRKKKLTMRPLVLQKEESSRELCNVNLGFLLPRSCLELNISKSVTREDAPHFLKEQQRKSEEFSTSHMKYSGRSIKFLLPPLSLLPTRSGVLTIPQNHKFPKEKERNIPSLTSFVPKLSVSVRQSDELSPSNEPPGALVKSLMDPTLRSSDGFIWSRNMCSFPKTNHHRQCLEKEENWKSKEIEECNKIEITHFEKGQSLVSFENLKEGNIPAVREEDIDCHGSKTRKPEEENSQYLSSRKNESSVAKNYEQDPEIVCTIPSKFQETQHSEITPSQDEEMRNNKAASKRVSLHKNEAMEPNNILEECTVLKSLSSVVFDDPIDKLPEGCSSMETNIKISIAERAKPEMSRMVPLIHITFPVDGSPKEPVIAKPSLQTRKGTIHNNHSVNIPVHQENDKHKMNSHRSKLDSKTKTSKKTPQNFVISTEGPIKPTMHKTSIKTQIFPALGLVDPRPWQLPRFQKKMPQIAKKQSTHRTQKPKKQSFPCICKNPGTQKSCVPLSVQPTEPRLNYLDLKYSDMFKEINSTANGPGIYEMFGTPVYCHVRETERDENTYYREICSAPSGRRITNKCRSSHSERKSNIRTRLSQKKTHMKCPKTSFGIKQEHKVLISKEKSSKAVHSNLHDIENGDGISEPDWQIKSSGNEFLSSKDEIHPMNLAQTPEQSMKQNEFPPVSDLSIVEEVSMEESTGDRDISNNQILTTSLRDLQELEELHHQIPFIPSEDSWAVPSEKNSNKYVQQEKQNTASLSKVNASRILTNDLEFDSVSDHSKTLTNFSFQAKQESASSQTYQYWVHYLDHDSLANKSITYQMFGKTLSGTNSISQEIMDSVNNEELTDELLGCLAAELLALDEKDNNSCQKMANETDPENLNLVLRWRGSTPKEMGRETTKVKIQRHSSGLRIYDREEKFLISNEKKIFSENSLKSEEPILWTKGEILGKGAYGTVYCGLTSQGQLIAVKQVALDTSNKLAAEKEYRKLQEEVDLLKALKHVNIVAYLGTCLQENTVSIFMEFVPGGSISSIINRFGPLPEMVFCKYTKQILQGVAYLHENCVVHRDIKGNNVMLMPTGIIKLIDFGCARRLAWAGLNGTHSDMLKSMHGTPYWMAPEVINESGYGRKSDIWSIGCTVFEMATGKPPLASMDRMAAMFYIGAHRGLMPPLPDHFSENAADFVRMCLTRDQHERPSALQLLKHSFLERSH

[10] = molecular target: Protein kinase C alpha type (Homo sapiens) (UniProt P17252); test: Selectivity interaction (Kinase panel (University of Dundee)) EUB0000169b PRKCA; settings: at 10 µM
[11] = molecular target: Mitogen-activated protein kinase 8 (Homo sapiens, UniProt P45983); settings: at 10 µM
Chain of Mitogen-activated protein kinase 8 (P45983 whole entry): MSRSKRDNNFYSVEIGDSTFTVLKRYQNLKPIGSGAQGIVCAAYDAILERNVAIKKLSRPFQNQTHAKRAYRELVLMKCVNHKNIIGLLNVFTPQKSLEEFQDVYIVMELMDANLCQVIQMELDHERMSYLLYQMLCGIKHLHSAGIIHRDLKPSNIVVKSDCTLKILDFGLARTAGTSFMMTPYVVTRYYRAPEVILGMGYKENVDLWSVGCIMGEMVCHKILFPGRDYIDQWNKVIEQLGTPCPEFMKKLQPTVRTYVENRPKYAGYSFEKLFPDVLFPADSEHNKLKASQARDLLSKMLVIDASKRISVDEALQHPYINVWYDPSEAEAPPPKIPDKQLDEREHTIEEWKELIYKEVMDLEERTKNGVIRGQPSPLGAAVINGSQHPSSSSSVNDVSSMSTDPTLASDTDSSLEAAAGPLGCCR

With `CN1C(=O)c2sccc2N(C)c2nc(Nc3ccc(S(N)(=O)=O)cc3)ncc21` the Kd [1] was 14 nM.
For `COc1cc2ncn(-c3cc(OCc4ccccc4C(F)(F)F)c(C(N)=O)s3)c2cc1OC` [GW843682X], the % of control [2] was 0%.
In the case of `CCOc1cn(-c2ccc(F)cc2C)nc1C(=O)Nc1ccc(Oc2ccnc3cc(OC)c(OC)cc23)c(F)c1`, the IC50 [3] is reported as 36 nM, the % of control [4] is reported as under 10% and the % of control [5] is reported as under 10%. The % of control [6] was under 10%, the % of control [7] was under 10% and the % of control [8] was under 10%.
`C[C@H](c1ccnc(Nc2nc3ccc(-c4cc(N(C)C)ncn4)cc3[nH]2)c1)N1CCN(C(=O)CC(F)(F)F)CC1` [BAY-985] showed a % of control [9] of 10%.
Molecule `CC[C@@H]1C(=O)N(C)c2cnc(Nc3ccc(C(=O)NC4CCN(C)CC4)cc3OC)nc2N1C1CCCC1` has a % of control [10] of 103% and a % of control [11] of 92%.
